According to patent US20170001988A1, “PIPERIDINE AND PIPERAZINE DERIVATIVES AND THEIR USE IN TREATING VIRAL INFECTIONS AND CANCER” (THE UNITED STATES OF AMERICA, AS REPRESENTED BY THE …, priority 2013, published 2017):
Read-outs that look alike come from different tables or passages of the source.

How the values were obtained:
in vitro = conditions: human
From the text: (§1) EC50 was generated using the HCV-Luc infection assay and IC50 using the ATPLite assay.
(§2) EC50 was generated using the HCV-Luc infection assay and TC50 using the ATPLite assay.
(§3) The cytotoxicity of the compounds was further evaluated in HepG2 cells and primary human hepatocytes.

Huh7.5.1 cells = experiment: in vitro; conditions: human
From the text: as §1, §2, §3

HCV-Luc [1] = experiment: HCV-Luc infection assay; type: cell-based; conditions: for EC50: Hepatitis C virus
HCV-Luc [2] = experiment: HCV-Luc assay of (S)-CCZ combinations, MacSynergy II and CalcuSyn analysis; type: cell-based; conditions: for CalcuSyn CI value: (S)-CCZ in combination with the drug named; for antiviral effect of (S)-CCZ with the drug named: combination with (S)-CCZ
Procedure: Direct-acting antivirals, such as telaprevir and daclatasvir, were recently approved for therapy of hepatitis C. […] Using the MacSynergy II program based on Bliss independence model, three-dimensional surface plots were generated and log volume of synergism was calculated for each combination. The results were also analyzed with the CalcuSyn program, in which the combination indices were calculated.

| Molecule | CC50 (in vitro) [µM] | EC50 (HCV-Luc [1]; Table 6, read-out: EC50) [µM] | other results |
| --- | --- | --- | --- |
| NCCOCCOCCOCCOCCN1CCN(C(c2ccccc2)c2ccc(Cl)cc2)CC1 (racemic) [(CH2CH2O)4CH2CH2NH2 (R,S), 14-(4-((4-Chlorophenyl)(phenyl)methyl)piperazin-1-yl)-3,6,9,12-tetraoxatetradecan-1-amine] | 12.2 ± 0.8 | – | CC50 (Huh7.5.1 cells): 12.2 ± 0.8 µM; EC50 (HCV-Luc [1]; Table 3, read-out: EC50): 0.004 ± 0.0022 µM; Selective Index (HCV-Luc [1]; Table 3): 3050; Selective Index (HCV-Luc [1]; Table 4): 3050 |
| Fc1ccc(CN2CCC(N(CCc3ccccc3)Cc3ccccc3)CC2)cc1 [4-Fluorobenzyl, N-Benzyl-1-(4-fluorobenzyl)-N-phenethylpiperidin-4-amine] | 56.3 | – | EC50 (HCV-Luc [1]): 9.6 µM |
| COc1ccc(CN2CCC(N(CCc3ccccc3)Cc3ccccc3)CC2)cc1 [4-Methoxybenzyl, N-Benzyl-1-(4-methoxybenzyl)-N-phenethylpiperidin-4-amine] | 27.8 | – | EC50 (HCV-Luc [1]): 4.35 µM |
| COC(=O)c1ccc(CN2CCC(N(CCc3ccccc3)Cc3ccccc3)CC2)cc1 [4-Methoxycarbonylbenzyl, Methyl 4-((4-(benzyl(phenethyl)amino)piperidin-1-yl)methyl)benzoate] | > 100 | 14 | – |
| Cc1ccc(CN2CCC(N(CCc3ccccc3)Cc3ccccc3)CC2)cc1 [4-Methylbenzyl, N-Benzyl-1-(4-methylbenzyl)-N-phenethylpiperidin-4-amine] | 40.3 | 0.74 | – |
| c1ccc(CCN(Cc2ccccc2)C2CCN(Cc3ccc(-c4ccccc4)cc3)CC2)cc1 [4-Phenylbenzyl, 1-([1,1′-Biphenyl]-4-ylmethyl)-N-benzyl-N-phenethylpiperidin-4-amine] | > 100 | 12.2 | – |
| FC(F)(F)c1ccc(CN2CCC(N(CCc3ccccc3)Cc3ccccc3)CC2)cc1 [4-Trifluoromethylbenzyl, N-Benzyl-N-phenethyl-1-(4-(trifluoromethyl)benzyl)piperidin-4-amine] | > 100 | > 10 | – |
| CC(=O)N1CCC(N(CCc2ccccc2)Cc2ccccc2)CC1 [Acetyl, 1-(4-(Benzyl(phenethyl)amino)piperidin-1-yl)ethanone] | 74.5 | > 31.6 | – |
| O=C(c1ccccc1)N1CCC(N(CCc2ccccc2)Cc2ccccc2)CC1 [Benzoyl, (4-(Benzyl(phenethyl)amino)piperidin-1-yl)(phenyl)methanone] | 94 | 24.8 | – |
| c1ccc(CCN(Cc2ccccc2)C2CCN(Cc3ccccc3)CC2)cc1 [Benzyl, N,1-dibenzyl-N-phenethylpiperidin-4-amine] | 30.9 | 0.32 | – |
| CC(C)(C)NC(=O)N[C@H](C(=O)N1C[C@H]2[C@@H]([C@H]1C(=O)NC(CC1CCC1)C(=O)C(N)=O)C2(C)C)C(C)(C)C (stereo partly shown) [Boceprevir] | – | – | CalcuSyn CI value (HCV-Luc [2]): 0.691 ± 0.114 |
| CCCCN1CCC(N(CCc2ccccc2)Cc2ccccc2)CC1 [Butyl, N-Benzyl-1-butyl-N-phenethylpiperidin-4-amine] | 17.9 | 1.55 | – |
| [2H]C([2H])([2H])CN1CCC(N(CCc2ccccc2)Cc2ccccc2)CC1 [CD3CH2—, N-Benzyl-1-ethyl(2,2,2-d3)-N-phenethylpiperidin-4-amine] | 50.8 | 2.37 | – |
| [2H]C([2H])([2H])N1CCC(N(CCc2ccccc2)Cc2ccccc2)CC1 [CD3—, N-Benzyl-1-methyl(d3)-N-phenethylpiperidin-4-amine] | 100 | 7.95 | – |
| FC(F)(F)CN1CCC(N(CCc2ccccc2)Cc2ccccc2)CC1 [CF3CH2—, N-Benzyl-N-phenethyl-1-(2,2,2-trifluoroethyl)piperidin-4-amine] | > 100 | > 31.6 | – |
| Ic1ccc(CN2CCC(N(CCc3ccccc3)Cc3ccccc3)CC2)cc1 [Compound 4-Iodobenzyl, N-Benzyl-1-(4-iodobenzyl)-N-phenethylpiperidin-4-amine] | > 100 | 2.98 | – |
| c1ccc(CCN(Cc2ccccc2)C2CCN(C3CCCCC3)CC2)cc1 [Cyclohexyl, N-Benzyl-1-cyclohexyl-N-phenethylpiperidin-4-amine] | 33.8 | 1.5 | – |

| Molecule | CC50 (in vitro) [µM] | EC50 (HCV-Luc [1]; Table 6, read-out: EC50) [µM] | other results |
| --- | --- | --- | --- |
| c1ccc(CCN(Cc2ccccc2)C2CCN(C3CCCC3)CC2)cc1 [Cyclopentyl, N-Benzyl-1-cyclopentyl-N-phenethylpiperidin-4-amine] | 15 | 0.48 | – |
| COC(=O)N[C@H](C(=O)N1CCC[C@H]1c1nc(-c2ccc(-c3ccc(-c4c[nH]c([C@@H]5CCCN5C(=O)[C@@H](NC(=O)OC)C(C)C)n4)cc3)cc2)c[nH]1)C(C)C [Daclataivir] | – | – | CalcuSyn CI value (HCV-Luc [2]): 0.427 ± 0.142 |
| CCN1CCN([C@@H](c2ccccc2)c2ccc(Cl)cc2)CC1 [Et (S), (S)-1-((4-Chlorophenyl)(phenyl)methyl)-4-ethylpiperazine] | 40 ± 1.1 | – | CC50 (Huh7.5.1 cells): 40 ± 1.1 µM; EC50 (HCV-Luc [1]; Table 3, read-out: EC50): 0.02 ± 0.002 µM |
| CCN1CCC(N(CCc2ccccc2)Cc2ccccc2)CC1 [Et, N-Benzyl-1-ethyl-N-phenethylpiperidin-4-amine] | 35.3 | 0.039 | – |
| c1ccc(CCN(Cc2ccccc2)C2CCNCC2)cc1 [H, N-Benzyl-N-phenethylpiperidin-4-amine] | 23.5 | 0.12 | – |
| CC(C)CN1CCC(N(CCc2ccccc2)Cc2ccccc2)CC1 [Isobutyl, N-Benzyl-1-isobutyl-N-phenethylpiperidin-4-amine] | 37.6 | 4.76 | – |
| CC(C)N1CCC(N(CCc2ccccc2)Cc2ccccc2)CC1 [Isopropyl, N-Benzyl-1-isopropyl-N-phenethylpiperidin-4-amine] | 37.6 | 0.94 | – |
| CN1CCC(N(CCc2ccccc2)Cc2ccccc2)CC1 [Me, N-Benzyl-1-methyl-N-phenethylpiperidin-4-amine] | 41.1 | 0.92 | – |
| c1ccc(CCN(Cc2ccccc2)C2CCN(Cc3ccc4c(c3)OCCO4)CC2)cc1 [N-Benzyl-1-((2,3-dihydrobenzo[b][1,4]dioxin-6-yl)methyl)-N-phenethylpiperidin-4-amine] | 36.6 | 2.78 | – |
| c1ccc(CCN(Cc2ccccc2)C2CCN(c3ccccc3)CC2)cc1 [Phenyl, N-Benzyl-N-phenethyl-1-phenylpiperidin-4-amine] | > 100 | – | EC50 (HCV-Luc [1]): > 31.6 µM |
| O=[S+]([O-])(c1ccccc1)N1CCC(N(CCc2ccccc2)Cc2ccccc2)CC1 [Phenylsulfonyl, N-Benzyl-N-phenethyl-1-(phenylsulfonyl)piperidin-4-amine] | > 100 | > 32.6 | – |
| CCCN1CCC(N(CCc2ccccc2)Cc2ccccc2)CC1 [Propyl, N-Benzyl-N-phenethyl-1-propylpiperidin-4-amine] | 38.2 | 0.37 | – |
| NC(=O)c1ncn([C@@H]2O[C@H](CO)[C@@H](O)[C@H]2O)n1 [Ribavirin] | – | – | CalcuSyn CI value (HCV-Luc [2]): 0.630 ± 0.106; antiviral effect of (S)-CCZ with the drug named (HCV-Luc [2]): highly synergistic |
| CC(C)OC(=O)[C@H](C)N[P@](=O)(OC[C@H]1O[C@@H](n2ccc(=O)[nH]c2=O)[C@](C)(F)[C@@H]1O)Oc1ccccc1 [Sofosbuvir] | – | – | CalcuSyn CI value (HCV-Luc [2]): 0.362 ± 0.075; antiviral effect of (S)-CCZ with the drug named (HCV-Luc [2]): highly synergistic |
| CCC[C@H](NC(=O)[C@@H]1[C@H]2CCC[C@H]2CN1C(=O)[C@@H](NC(=O)[C@@H](NC(=O)c1cnccn1)C1CCCCC1)C(C)(C)C)C(=O)C(=O)NC1CC1 [Telaprevir] | – | – | CalcuSyn CI value (HCV-Luc [2]): 0.426 ± 0.138 |
| IFN-α | – | – | CalcuSyn CI value (HCV-Luc [2]): 0.609 ± 0.128; antiviral effect of (S)-CCZ with the drug named (HCV-Luc [2]): highly synergistic |
